Laboratory results as given in patent US20130302282A1, “Inhibitors of Hepatitis C Virus” (priority 2010, published 2013).
Read-outs that look alike come from different tables or passages of the source.

Test system: 1b_Huh-Luc/Neo-ET cell line (bicistronic genotype 1b replicon in Huh 7 cells)
Test: HCV 1b replicon assay, luciferase readout
Format: cell-based, HCV genotype 1b
Conditions: Hepatitis C virus
Protocol: Biological activity of the compounds of the invention was determined using an HCV replicon assay. The 1b_Huh-Luc/Neo-ET cell line persistently expressing a bicistronic genotype 1b replicon in Huh 7 cells was obtained from ReBLikon GMBH. This cell line was used to test compound inhibition using luciferase enzyme activity readout as a measurement of compound inhibition of replicon levels.
On Day 1 (the day after plating), each compound is added in triplicate to the cells. Plates incubated for 72 […] prior to running the luciferase assay. Enzyme activity was measured using a Bright-Glo Kit (cat. number E2620) manufactured by Promega Corporation. The following equation was used to generate a percent control value for each compound.
%Control=(Average Compound Value/Average Control)*100
The EC50 value was determined using GraphPad Prism and the following equation:
Y=Bottom+(Top−Bottom)/(1+10̂((LogIC50−X)*HillSlope))
EC50 values of compounds are repeated several times in the replicon assay.

[1] = Huh-7, class symbol, HCV genotype 1b replicon, read-out: Inhibition of HCV genotype 1b replicon
[2] = Huh-7, 1b_Huh-Luc/Neo-ET cell line, read-out: EC50, half-maximal inhibition of HCV 1b replication

SMILES	EC50 [1] [nM]	EC50 [2] [nM]	EC50 (Huh-7, read-out: Inhibition of HCV genotype 1b replicon, class symbol, HCV genotype 1b replicon) [nM]
CNC(=O)c1c(-c2ccc(F)cc2)nn2cc3c(cc12)[C@@H](C)CCCN3S(C)(=O)=O (single isomer, unassigned) [Compound B51]	> 1000		
CNC(=O)c1c(-c2ccc(F)cc2)nn2cc3c(cc12)[C@H](C)CCCN3S(C)(=O)=O (single isomer, unassigned) [Compound B52]	100 to 1000		
CNC(=O)c1c(-c2ccc(Oc3ccc(F)cc3)cc2)oc2cc3c(cc12)[C@@H](C)CCCN3S(C)(=O)=O (single isomer, unassigned) [Compound B86]	100 to 1000		
CNC(=O)c1c(-c2ccc(F)cc2)oc2cc3c(cc12)[C@H](C)N1CCC[C@@H]1CN3S(C)(=O)=O (single isomer, unassigned) [Compound B131]	< 10	≤ 10	
CNC(=O)c1c(-c2ccc(F)cc2)oc2cc3c(cc12)[C@H]1C[C@H]1CCN3S(C)(=O)=O (single isomer, unassigned) [Compound B133]	> 1000		
CNC(=O)c1c(-c2ccc(Oc3ccc(F)cc3)cc2)oc2cc3c(cc12)[C@@H](C)n1nncc1CN3S(C)(=O)=O (single isomer, unassigned) [Compound B164]	10 to 100	10 to 100	
CNC(=O)c1c(-c2ccc(F)cc2)oc2cc3c(cc12)[C@@H](C)n1nncc1CN3S(C)(=O)=O (single isomer, unassigned) [Compound B170]	10 to 100	10 to 100	
CNC(=O)c1c(-c2ccc(Oc3ccc(F)cc3)cc2)oc2cc3c(cc12)[C@@H](C)OC(C)(C)CN3S(C)(=O)=O (single isomer, unassigned) [Compound B177]	100 to 1000		
CNC(=O)c1c(-c2ccc(F)cc2)oc2cc3c(cc12)[C@@H](C)N(C)C(=O)CN3S(C)(=O)=O (single isomer, unassigned) [Compound B180]	10 to 100	10 to 100	
CNC(=O)c1c(-c2ccc(Oc3ccc(F)cc3)cc2)oc2cc3c(cc12)[C@H](C)N(C)C(=O)CN3S(C)(=O)=O (single isomer, unassigned) [Compound B181]	10 to 100	10 to 100	
CNC(=O)c1c(-c2ccc(Oc3ccc(F)cc3)cc2)oc2cc3c(cc12)[C@@H](C)N(C)C(=O)CN3S(C)(=O)=O (single isomer, unassigned) [Compound B182]	100 to 1000		
CNC(=O)c1c(-c2ccc(F)cc2)oc2cc3c(cc12)[C@@H](C)OC(C)(C)CN3S(C)(=O)=O (single isomer, unassigned) [Compound B185]	> 1000		
CNC(=O)c1c(-c2ccc(Oc3ccc(F)cc3)cc2)oc2cc3c(cc12)[C@@H](C)OC1(CC1)CN3S(C)(=O)=O (single isomer, unassigned) [Compound B186]	10 to 100	10 to 100	
CNC(=O)c1c(-c2ccc(F)cc2)oc2cc3c(cc12)[C@@H](C)OC1(CC1)CN3S(C)(=O)=O (single isomer, unassigned) [Compound B194]	100 to 1000		
CNC(=O)c1c(-c2ccc(F)cc2)oc2cc3c(cc12)[C@H](C)c1ccccc1CN3S(C)(=O)=O (single isomer, unassigned) [Compound B203]	10 to 100	10 to 100	
CNC(=O)c1c(-c2ccc(F)cc2)oc2cc3c(cc12)[C@@H](C)c1ccccc1CN3S(C)(=O)=O (single isomer, unassigned) [Compound B204]	10 to 100	10 to 100	
CNC(=O)c1c(-c2ccc(F)cc2)oc2cc3c(cc12)[C@@H](C)NC(=O)CN3S(C)(=O)=O (single isomer, unassigned) [Compound B209]	100 to 1000		
CNC(=O)c1c(-c2ccc(Oc3ccc(F)c(F)c3)cc2)nn2cc3c(cc12)C(C)CCCN3S(C)(=O)=O (stereo not drawn) [B97 (3)]			10 to 100
CNC(=O)c1c(-c2ccc(F)cc2)oc2cc3c(cc12)C1(CCN3S(C)(=O)=O)CC1 [Compound B2]	10 to 100	10 to 100	
CNC(=O)c1c(-c2ccc(F)cc2)oc2cc3c(cc12)CCCCCCN3S(C)(=O)=O [Compound B19]	10 to 100	10 to 100	
CNC(=O)c1c(-c2ccc(F)cc2)oc2cc3c(cc12)CCCCCN3S(C)(=O)=O [Compound B20]	< 10	≤ 10	
CNC(=O)c1c(-c2ccc(F)cc2)oc2cc3[nH]ccc3cc12 [Compound B25]	> 1000		

SMILES	EC50 [1] [nM]	EC50 [2] [nM]	EC50 (Huh-7, read-out: Inhibition of HCV genotype 1b replicon, class symbol, HCV genotype 1b replicon) [nM]
CNC(=O)c1c(-c2ccc(F)cc2)nc2cc3c(cn12)C(C)=CCCO3 [Compound B30]	> 1000		
C=C1CCCN(S(C)(=O)=O)c2cc3oc(-c4ccc(Oc5ccc(F)cc5)cc4)c(C(=O)NC)c3cc21 [Compound B46]	100 to 1000		
CNC(=O)c1c(-c2ccc(Oc3ccc(F)cc3)cc2)oc2cc3c(cc12)C(C)CCCN3S(C)(=O)=O (stereo not drawn) [Compound B47]	10 to 100	10 to 100	
CNC(=O)c1c(-c2ccc(Oc3ccc(F)cc3)cc2)oc2cc3c(cc12)C(C)=CCCN3S(C)(=O)=O [Compound B48]	10 to 100	10 to 100	
CNC(=O)c1c(-c2ccc(F)cc2F)oc2cc3c(cc12)C(=O)CCCN3S(C)(=O)=O [Compound B49]	100 to 1000		
CNC(=O)c1c(-c2ccc(F)cc2)nn2cc3c(cc12)C(C)CCCN3S(C)(=O)=O (stereo not drawn) [Compound B50]	100 to 1000		
CS(=O)(=O)N1CCCCc2cc3c(C#N)c(-c4ccc(F)cc4)oc3cc21 [Compound B53]	> 1000		
C=CCN1CCN(S(C)(=O)=O)c2cc3oc(-c4ccc(F)cc4)c(C(=O)NC)c3cc2C1C (stereo not drawn) [Compound B54]	10 to 100	10 to 100	
C=CCN1C(=O)CN(S(C)(=O)=O)c2cc3oc(-c4ccc(F)cc4)c(C(=O)NC)c3cc2C1C (stereo not drawn) [Compound B55]	10 to 100	10 to 100	
CNC(=O)c1c(-c2ccc(F)cc2)nc2cc3c(cn12)C(C)CCCN3S(C)(=O)=O (stereo not drawn) [Compound B56]	100 to 1000		
CNC(=O)c1c(-c2ccc(F)cc2)oc2cc3c(cc12)C(C)NCCN3S(C)(=O)=O (stereo not drawn) [Compound B57]	10 to 100	10 to 100	
CS(=O)(=O)N1CCCCc2cc3c(-c4ncn[nH]4)c(-c4ccc(F)cc4)oc3cc21 [Compound B58]	100 to 1000		
CN(O)C(=O)c1c(-c2ccc(F)cc2)oc2cc3c(cc12)CCCCN3S(C)(=O)=O [Compound B59]	100 to 1000		
C=C1CCCN(S(C)(=O)=O)c2cc3oc(-c4ccc(F)cc4OC)c(C(=O)NC)c3cc21 [Compound B83]	> 1000		
CNC(=O)c1c(-c2ccc(F)cc2OC)oc2cc3c(cc12)C(C)CCCN3S(C)(=O)=O (stereo not drawn) [Compound B84]	10 to 100	10 to 100	
CNC(=O)c1c(-c2ccc(F)cc2)oc2cc3c(cc12)CCCCN3C(=O)OC [Compound B87]	100 to 1000		
CNC(=O)c1c(-c2ccc(F)cc2)oc2cc3c(cc12)C(O)CCCCN3S(C)(=O)=O (stereo not drawn) [Compound B88]	100 to 1000		
CNC(=O)c1c(-c2ccc(Br)cc2)nn2cc3c(cc12)C(C)CCCN3S(C)(=O)=O (stereo not drawn) [Compound B89]	10 to 100		
CNC(=O)c1c(-c2ccc(Oc3ccccc3)cc2)nn2cc3c(cc12)C(C)CCCN3S(C)(=O)=O (stereo not drawn) [Compound B90]	100 to 1000		
CNC(=O)c1c(-c2ccc(Oc3ccccc3Cl)cc2)nn2cc3c(cc12)C(C)CCCN3S(C)(=O)=O (stereo not drawn) [Compound B91]	100 to 1000		
CNC(=O)c1c(-c2ccc(F)cc2)oc2cc3c(cc12)CC(C)CCN3S(C)(=O)=O (stereo not drawn) [Compound B92]	< 10	≤ 10	
CNC(=O)c1c(-c2ccc(F)cc2)oc2cc3c(cc12)CCCCN3S(=O)(=O)C1CC1 [Compound B93]	10 to 100	10 to 100	
